Tests used:
[1] = test system: murine and human cell lines; test: Cell proliferation by cell counting, all cell lines; format: cell-based; details: 350 μM nevirapine vs DMSO control
Protocol: Cells were cultured with (dashed line) and without (DMSO, solid line) nevirapine. The proliferation rate is expressed as the ratio of counted cells at the indicated times relative to the initial number of seeded cells, taken as 1. Points represent the mean value and bars the standard deviation from at least three independent assays for all cell types.
Samples were withdrawn at specific times and cells were counted in nevirapine-exposed and control (DMSO-exposed) cultures. […] Saos-2 osteosarcoma cells were the most slowly responsive type, and only after 5 days of exposure did the growth rate begin to decrease compared to control cultures.

[2] = test system: HL60 cells; test: NBT dye reduction assay; format: cell-based, human; details: HL60, Nev 350 μM, 4 days
[3] = test system: HL60 cells; test: Morphological differentiation, Wright-Giemsa staining; format: cell-based, human; details: five days of nevirapine treatment (400 μM)
[4] = test system: cyclin D1 in NIH/3T3; test: Western immunoblotting of cyclin D1; format: cell-based, murine; details: 72 h nevirapine vs non-exposed controls
Text: (§1) FIG. 3A. Cell cycle analysis in control and nevirapine-exposed cells. […] In the U343 glioma cell line, the cell cycle was separately analysed in the diploid cell fraction (representing about ⅔ of all cells) and in the remaining fraction (about ⅓) which develops aneuploidy. FIG. 3B. […] The filter was reprobed with anti-actin antibody to control equal loading (lower panel).

[5] = test system: NIH/3T3; test: FACS cell cycle analysis; format: cell-based, murine; details: after 72 h of nevirapine treatment
Text: as §1

[6] = test system: Kasumi-1 cell line and primary blasts from two AML patients; test: Cell cycle in myeloid leukemia cells poorly sensitive to RA; format: cell-based, human; details: nevirapine treatment, data not shown
[7] = test system: C2C7 myogenic satellite cells; test: Differentiation of C2C7 myogenic cells (myotube scoring, MHC immunofluorescence); format: cell-based, murine; details: nevirapine pre-treatment, differentiation medium 48 h, anti-MHC IF
Text: FIG. 4C, 60× magnification of myotubes in A. FIG. 4D, 60× magnification of myotubes in B. FIG. 4E, 60× magnification of MHC-positive myoblasts in the field in B.
Murine C2C7 myogenic satellite cells, which proliferate as mononucleated myoblasts can be induced to differentiate upon growth factor withdrawal and form multinucleated myotubes that express muscle-specific genes. […] By light-field microscopy scoring (n=300 cells from randomly selected fields), the ratio between multinucleated myotubes (i.e., cells with more than three nuclei) and mono/binucleated cells was about 1:1 in nevirapine-treated compared to 1:2 in untreated samples. Cells monolayers were further analyzed by immunofluorescence (IF) using a polyclonal antibody to myosin heavy chain (MHC), a late marker of muscle differentiation.

[8] = test system: endogenous RT activity; test: PCR-based functional RT activity assay (MS2 RNA) with F9 lysate; format: biochemical, murine; details: cell lysate pre-incubated with 100 μM
Text: FIG. 1: Reverse transcriptase in murine and human cell lines. FIG. 1A. […] Lanes M, DNA molecular weight markers; lane 23, positive control reaction with commercial Rt. FIG. 1B. Western analysis of RT proteins (upper panels) and α-tubulin (lower panels) in WCE and nuclei. WCE were from: F9 (lane 1), NIH/3T3 (lane 2), MCF7 (lane 3), MDA-231 (lane 4), NB4 (lane 5), HL60 (lane 6) and ML2 blasts (lane 7). Nuclear extracts were from: F9 (lane 1), MCF7 (lane 2), MDA-231 (lane 3), NIH 3T3 (lane 4), HL60 (lane 5) and NB4 (lane 6).
The RT enzymatic activity, which is the target of the inhibitors described herein, has been detected in all cell lines, of both murine and human origin, that have been tested in this work using a PCR-based assay. […] The presence of RT enzyme in tumor cells is further confirmed by Western blot analysis.

[9] = test system: Morris 3924A hepatoma; test: Morris 3924A rat hepatoma in vivo
Protocol: Rat strain: ACI/T inbred (about 180 gr)
Tumor: Morris 3924A hepatoma is a fast-growing tumor which develops in inbred ACI/T animals. Three weeks after inoculation the tumor size is about 10 cm^3.
Preparation of tumor cells: hepatoma tumor cells are prepared from the animal about two weeks after inoculation. The tumor is surgically removed from the animal, separated from connective and necrotic tissues and minced in small pieces. Tumor fragments are then suspended in sterile physiological solution and inoculated in the internal site of one thigh using a 20 ml-syringe with a large size needle. Routinely 0.5 ml of cell suspension are injected. The success rate of tumor implantation is nearly 99%.
On the eleventh day, hepatoma cells were inoculated subcutaneously in pre-treated and in three non-treated control rats.
Procedures and Results: Morris hepatoma cells were inoculated in 4 rats ([…]). The same day, treatment with efavirenz was initiated in two of them by injecting 1 mg/rat/day.

[10] = test system: cyclin D1 in U343 Mg glioma; test: Western immunoblotting of cyclin D1; format: cell-based, human; details: 72 h nevirapine vs non-exposed controls, data not shown
Text: as §1

[11] = test system: cyclin D1 in MCF-7; test: Western immunoblotting of cyclin D1; format: cell-based, human; details: 72 h nevirapine vs non-exposed controls
Text: as §1

[12] = test system: cyclin D1 in HT-29; test: Western immunoblotting of cyclin D1; format: cell-based, human; details: 72 h nevirapine vs non-exposed controls
Text: as §1

[13] = test system: AML #2; test: NBT dye reduction assay; format: cell-based, human; details: AML #2, Nev 350 μM, 4 days
[14] = test system: Kasumi-1 cells; test: NBT dye reduction assay; format: cell-based, human; details: Kasumi-1, Nev 350 μM, 4 days
[15] = test system: NB4 cells; test: Growth, viable cell count; format: cell-based, human; details: NB4, Nev 350 μM, 4 days

**Q.** What does the source list for `Cc1ccnc2c1NC(=O)c1cccnc1N2C1CC1` [nevirapine, 5,11-dihydro-11-cyclopropyl-4-methyl-6H-dipyrido-[3,2-b:2′,3′-e][1,4]diazepin-6-one]?
**A.** rate of proliferation [1]: decreases the rate of proliferation in all cell lines; NBT+ (%) [2]: 37.8 ± 2.5%; morphology [3]: myelomonocytic-like morphology was evident; cyclin D1 levels [4]: substantial decrease; cells with a G0/G1 DNA content [5]: accumulated; accumulation of cells in the G1 phase of the cell cycle [6]: modest yet constant accumulation; myosin synthesis in isolated myoblasts [7]: already activated; RT activity, 112 bp-product [8]: abolished; tumor at the site of injection ([9]; nevirapine 18 mg/rat/day pre-treatment for 11 days, 17 days from inoculation, only one of 3 treated rats, controls 2-4 cm^3): small nodule of a few millimeters; rats in which onset and growth of hepatoma were antagonized (remained permanently healthy) ([9]; nevirapine 18 mg/rat/day pre-treatment for 11 days, untreated 3/3 develop tumor): ⅔; histology of tumor tissue ([9]; nevirapine-treated rat vs untreated sample): transformed areas are remarkably reduced, and cells present clear apoptotic features; cyclin D1 levels [10]: substantial decrease; cyclin D1 levels [11]: substantial decrease; cyclin D1 levels [12]: substantial decrease; NBT (%) [13]: 68.1 ± 1.4%; NBT+ (%) [14]: 31.2 ± 1.1%; Viable cells N^0 × 10^5 [15]: 2.6 ± 0.4 × 10^5

Reference: patent publication US10507207B2, “Non-nucleosidic inhibitors of reverse transcriptase as antagonists of cell proliferation and inducers of cell differentiation” (ISTITUTO SUPERIORE DI SANITA, priority 2001, dated 2019)
